Columns and labels:
[1] = system: gastric juice secretion of Pylorus-ligated rats; assay: Gastric juice secretion and acidity of pylorus-ligated rats after oral administration; format: in vivo, Wister rats; parameters: T.AC / MEL (10^3) / MEAH: unit not given here; conditions: for Total volume of gastric juice: 5 hours after pylorus ligation; for Total volume of gastric juice / MEL (10^3) / MEAH: n = 8, X ± S; for Inhibition ratio for total acid amount / Inhibition to gastric juice secretion: versus control group; for MEL (10^3): acid concentration of gastric juice; for MEAH: total acid amount in gastric juice; for T.AC: volume of 0.01 N NaOH to titrate to pH 7, n = 8, X ± S
Protocol: (§1) Wister rats (200–250 g), half were male and half were female, were starved for 48 hours and the pylori were ligated. Immediately after ligation, a suspension or solution of a salt in distilled water was administered orally into the stomachs in an amount of 2.0 ml/Kg; while 0.5% MC of the same volume was given to the control group. After administration of the test salt for 5 hours, the rats were killed. Their cardias were ligated and their stomachs were taken out. The gastric juice was collected into centrifuge tube and centrifuged at 2500 rpm for 10 min, the volume after residue removed was recorded as the total volume of the gastric juice. The acidity of gastric juice and pepsin activity were measured with the supernatant of the gastric juice after centrifuging.
(a) Measurement of the acidity of gastric juice: with 0.5 ml of gastric juice taken exactly, about 20 ml of distilled water added in, it was measured with pH meter. The mixture was titrated to pH 7 with 0.01 N NaOH solution, and the volume of 0.01 N NaOH solution used was recorded. Then, the volume (T.AC) was calculated corresponding to titrating to pH 7 with 0.01 N NaOH solution. Acid concentration of gastric juice (MEL)=(T.AC/2)×1000 Total acid amount in gastric juice (MEAH)=MEL×(total volume of gastric juice/1000) Inhibiting ratio on the secretion of gastric juice %=[(volume of the gastric juice of the control group−volume of the gastric juice of the treatment group)/volume of the gastric juice of the control group]×100% Inhibiting ratio on the total acid amount in gastric juice %=[(MEAH of the control group−MEAH of the treatment group)/MEAH of the control group]×100%

[2] = system: pepsin; assay: Pepsin activity in gastric juice of pylorus-ligated rats (Mett tube method); format: in vivo, Wister rats; conditions: for activity of pepsin: n = 8, X ± S; for Inhibition ratio for pepsin activity: versus control group
Protocol: as §1
(b) Enzyme assay for pepsin (Mett tube method): 0.5 ml of gastric juice was added exactly into a clean 50 ml flask with a plug, the flask was shaken to get a homogeneous solution, then, 15.0 ml of 0.05 N HCL solution was added in, in the meantime, two 3.0–4.0 cm long Mett tubes were put inside. The flask was plugged, shaken to get a homogeneous solution, left to stand at 37° C. for 24 hours. The length (mm) of the transparent part at the two ends of each Mett tube was measured precisely to get four values. The mean value was based on the four values, and the pepsin activity was calculated. Inhibiting ratio of pepsin activity %=[(pepsin activity of the control group−pepsin activity of the treatment group)/pepsin activity of the control group]×100% Test Result: […]

[3] = system: KunMing mice; assay: Acute toxicity of NIPWZ, oral administration to mice (LD50, Bliss's method); format: in vivo; conditions: for Death distribution 2 h / Death distribution 4 h / Death distribution 24 h / Death distribution 72 h / Number of death (F:M) / Ratio of death: 10 mice
Protocol: 50 second grade KunMing mice were provided, each weighing 20.0±1.2 g, randomly divided into 5 groups, 10 for each group, 5 male and 5 female. Medicine was administered intra-gastrically by 40 ml/Kg once, the solvent was 0.5% MC. The doses for the 5 groups were: 4480 mg/Kg, 3000 mg/Kg, 2010 mg/Kg, 1350 mg/Kg, 910 mg/Kg, the ratio of any two abutted doses was 1:0.67. […] Wherein the LD50 was determined by Bliss's method.

With “Salts of Sulfodehydroabietic Acid with Bismuth [NIPWB]” the “Total volume of gastric juice” value ([1]; oral 50 mg/Kg) was 6.5 ± 2.5 mL, the “Inhibition ratio for total acid amount” value ([1]; oral 50 mg/Kg) was 45.7% and the “Inhibition to gastric juice secretion” value ([1]; oral 50 mg/Kg) was 28.6%. The “MEL (10^3)” value ([1]; oral 50 mg/Kg) was 2.42 ± 1.79, the MEAH ([1]; oral 50 mg/Kg) was 15.9 ± 4.5 and the T.AC ([1]; oral 50 mg/Kg) was 4.85 ± 3.58. For the same substance, the “Total volume of gastric juice” value ([1]; oral 100 mg/Kg) was 7.6 ± 2.9 mL, the “Inhibition ratio for total acid amount” value ([1]; oral 100 mg/Kg) was 44.4% and the “Inhibition to gastric juice secretion” value ([1]; oral 100 mg/Kg) was 16.5%. For the same substance, the “MEL (10^3)” value ([1]; oral 100 mg/Kg) was 2.16 ± 1.65, the MEAH ([1]; oral 100 mg/Kg) was 16.3 ± 4.7 and the T.AC ([1]; oral 100 mg/Kg) was 4.32 ± 3.30. The activity of pepsin ([2]; oral 50 mg/Kg) was 0.74 ± 0.61 U, the “Inhibition ratio for pepsin activity” value ([2]; oral 50 mg/Kg) was 50.0% and the activity of pepsin ([2]; oral 100 mg/Kg) was 0.36 ± 0.20 U. The “Inhibition ratio for pepsin activity” value ([2]; oral 100 mg/Kg) was 75.7%.
“Salts of Sulfodehydroabietic Acid with Zinc [NIPWZ]” was tested, and the “Total volume of gastric juice” value ([1]; oral 50 mg/Kg) was 7.2 ± 2.9 mL, the “Inhibition ratio for total acid amount” value ([1]; oral 50 mg/Kg) was 52.9% and the “Inhibition to gastric juice secretion” value ([1]; oral 50 mg/Kg) was 20.9%. For the same substance, the “MEL (10^3)” value ([1]; oral 50 mg/Kg) was 1.92 ± 1.47, the MEAH ([1]; oral 50 mg/Kg) was 13.8 ± 4.2 and the T.AC ([1]; oral 50 mg/Kg) was 3.83 ± 2.93. For the same substance, the “Total volume of gastric juice” value ([1]; oral 100 mg/Kg) was 7.0 ± 3.1 mL, the “Inhibition ratio for total acid amount” value ([1]; oral 100 mg/Kg) was 47.1% and the “Inhibition to gastric juice secretion” value ([1]; oral 100 mg/Kg) was 23.1%. The “MEL (10^3)” value ([1]; oral 100 mg/Kg) was 2.21 ± 1.32, the MEAH ([1]; oral 100 mg/Kg) was 15.5 ± 4.1 and the T.AC ([1]; oral 100 mg/Kg) was 4.41 ± 2.64. For the same substance, the “Death distribution 2 h” value ([3]; mice, oral 910 mg/Kg) was 0, the “Death distribution 4 h” value ([3]; mice, oral 910 mg/Kg) was 0 and the “Death distribution 24 h” value ([3]; mice, oral 910 mg/Kg) was 0. The “Death distribution 72 h” value ([3]; mice, oral 910 mg/Kg) was 0, the “Number of death (F:M)” value ([3]; mice, oral 910 mg/Kg) was 0 (0:0) and the Ratio of death ([3]; mice, oral 910 mg/Kg) was 0%. For the same substance, the “Death distribution 2 h” value ([3]; mice, oral 1350 mg/Kg) was 0, the “Death distribution 4 h” value ([3]; mice, oral 1350 mg/Kg) was 0 and the “Death distribution 24 h” value ([3]; mice, oral 1350 mg/Kg) was 3. The “Death distribution 72 h” value ([3]; mice, oral 1350 mg/Kg) was 1, the “Number of death (F:M)” value ([3]; mice, oral 1350 mg/Kg) was 4 (1:3) and the Ratio of death ([3]; mice, oral 1350 mg/Kg) was 40%. The “Death distribution 2 h” value ([3]; mice, oral 2010 mg/Kg) was 0, the “Death distribution 4 h” value ([3]; mice, oral 2010 mg/Kg) was 0 and the “Death distribution 24 h” value ([3]; mice, oral 2010 mg/Kg) was 7. For the same substance, the “Death distribution 72 h” value ([3]; mice, oral 2010 mg/Kg) was 0, the “Number of death (F:M)” value ([3]; mice, oral 2010 mg/Kg) was 7 (5:2) and the Ratio of death ([3]; mice, oral 2010 mg/Kg) was 70%. For the same substance, the “Death distribution 2 h” value ([3]; mice, oral 3000 mg/Kg) was 0, the “Death distribution 4 h” value ([3]; mice, oral 3000 mg/Kg) was 7 and the “Death distribution 24 h” value ([3]; mice, oral 3000 mg/Kg) was 1. For the same substance, the “Death distribution 72 h” value ([3]; mice, oral 3000 mg/Kg) was 0, the “Number of death (F:M)” value ([3]; mice, oral 3000 mg/Kg) was 8 (5:3) and the Ratio of death ([3]; mice, oral 3000 mg/Kg) was 80%. For the same substance, the “Death distribution 2 h” value ([3]; mice, oral 4480 mg/Kg) was 7, the “Death distribution 4 h” value ([3]; mice, oral 4480 mg/Kg) was 3 and the “Death distribution 24 h” value ([3]; mice, oral 4480 mg/Kg) was 0. The “Death distribution 72 h” value ([3]; mice, oral 4480 mg/Kg) was 0, the “Number of death (F:M)” value ([3]; mice, oral 4480 mg/Kg) was 10 (5:5) and the Ratio of death ([3]; mice, oral 4480 mg/Kg) was 100%. The LD50 ([3]; mice, oral administration, Bliss's method) was 1728 mg/kg, the “LD50 as multiple of the clinic dose” value ([3]; taking 1000 mg/day for a 60 Kg human being) was “approximately 104 times” and the activity of pepsin ([2]; oral 50 mg/Kg) was 0.88 ± 0.33 U. For the same substance, the “Inhibition ratio for pepsin activity” value ([2]; oral 50 mg/Kg) was 40.5%, the activity of pepsin ([2]; oral 100 mg/Kg) was 0.66 ± 0.34 U and the “Inhibition ratio for pepsin activity” value ([2]; oral 100 mg/Kg) was 55.4%.
